Earlier results, collected in article PMC7673724 (Science Advances, 2020).

Test system: Rubisco
Settings: control used to normalize array signal (one unit of binding)

## TRSVLPANWRQELESLRN [control EPYC1 peptide]
  Binding to Rubisco of the positive control peptide: known to bind to Rubisco
